In brackets after ≈: the same amount, converted by molar mass. Where two headings read alike, the source gives them in different places.
What was measured:
Assay in all cases: MIC, agar dilution method, pH 8.0
Format in all cases: cell-based
[1] = tested on: Staphylococcus aureus KY4279 ATCC6538P
Protocol: (§1) Measurement was carried out according to the agar dilution method, using a medium of pH 8.0, or the Japanese Antibiotic Medicament Standard, using a medium of pH 7.2 Units are in mcg/ml.
S.A.: Staphylococcus aureus KY4279 ATCC6538P

[2] = tested on: Bacillus subtilis KY4273
Protocol: as §1
B.S.: Bacillus subtilis KY4273

[3] = tested on: Eschericia coli KY4271 ATCC26; conditions: Escherichia coli
Protocol: as §1
E.C.: Eschericia coli KY4271 ATCC26

[4] = tested on: Proteus vulgaris KY4277 ATCC6897
Protocol: as §1

[5] = tested on: Shigella sonnei KY4281 ATCC9290; conditions: ATCC9290; pH 8.0; Shigella sonnei KY4281; read-out: Minimum inhibition concentration (MIC), SS
Protocol: as §1

[6] = tested on: Salmonella typhosa KY4278 ATCC9992; conditions: Salmonella enterica, pH 8, read-out: Minimum inhibition concentration (MIC), ST
Protocol: as §1
S.T.: Salmonella typhosa KY4278 ATCC9992

[7] = tested on: Klebsiella pneumoniae KY4275 ATCC10031; conditions: ATCC10031; pH 8.0; Klebsiella pneumoniae KY4275; read-out: Minimum inhibition concentration (MIC), KP
Protocol: as §1
K.P.: Klebsiella pneumoniae KY4275 ATCC10031.

[8] = pH 8.0, Staphylococcus aureus KY4279, read-out: Minimum inhibition concentration (MIC), SA
[9] = pH 8.0, Bacillus subtilis KY4273, read-out: Minimum inhibition concentration (MIC), BS
[10] = ATCC26, pH 8.0, E. coli KY4271, read-out: Minimum inhibition concentration (MIC), EC
[11] = ATCC6897, pH 8.0, Proteus vulgaris KY4277, read-out: Minimum inhibition concentration (MIC), PV
[12] = Staphylococcus aureus, pH 8, read-out: Minimum inhibition concentration (MIC), SA
[13] = Bacillus subtilis, KY4273, pH 8, read-out: Minimum inhibition concentration (MIC), BS
[14] = ATCC26, pH 8, read-out: Minimum inhibition concentration (MIC), EC
[15] = Proteus vulgaris, ATCC6897, pH 8, read-out: Minimum inhibition concentration (MIC), PV

CO[C@H]1[C@@H](O)[C@H](N)[C@@H](O[C@H]2O[C@H]([C@H](C)N)CC[C@H]2N)[C@H](O)[C@@H]1N(C)C(C)=O [Compound 5, 4-N-acetylfortimicin B]
MIC [1, 8]: 12.5 µg/mL (≈ 32 µM) | MIC [2, 9]: 50 µg/mL (≈ 128 µM) | MIC [3, 10]: 50 µg/mL (≈ 128 µM) | MIC [4, 11]: 100 µg/mL (≈ 256 µM) | MIC [5]: 50 µg/mL (≈ 128 µM) | MIC [6]: 50 µg/mL (≈ 128 µM) | MIC [7]: > 200 µg/mL

CO[C@H]1[C@@H](O)[C@H](N)[C@@H](O[C@H]2O[C@H]([C@H](C)N)CC[C@H]2N)[C@H](O)[C@@H]1N(C)CCCN [Compound 20, 4-N-(3-aminopropyl)fortimicin B]
MIC [1, 12]: 1.25 µg/mL (≈ 3.08 µM) | MIC [2, 9]: 2.5 µg/mL (≈ 6.16 µM) | MIC [3, 10]: 5 µg/mL (≈ 12.3 µM) | MIC [4, 11]: 10 µg/mL (≈ 24.7 µM) | MIC [5]: 20 µg/mL (≈ 49.3 µM) | MIC [6]: 1.25 µg/mL (≈ 3.08 µM) | MIC [7]: 80 µg/mL (≈ 197 µM)

CO[C@H]1[C@@H](O)[C@H](N)[C@@H](O[C@H]2O[C@H]([C@H](C)N)CC[C@H]2N)[C@H](O)[C@@H]1N(C)CCCCCN [Compound 22, 4-N-(5-aminopentyl)fortimicin B]
MIC [1, 8]: 1.25 µg/mL (≈ 2.88 µM) | MIC [2, 9]: 0.63 µg/mL (≈ 1.45 µM) | MIC [3, 10]: 5 µg/mL (≈ 11.5 µM) | MIC [4, 11]: 10 µg/mL (≈ 23.1 µM) | MIC [5]: 5 µg/mL (≈ 11.5 µM) | MIC [6]: 2.5 µg/mL (≈ 5.77 µM) | MIC [7]: 20 µg/mL (≈ 46.1 µM)

CCCC(=O)N(C)[C@H]1[C@@H](O)[C@H](O[C@H]2O[C@H]([C@H](C)N)CC[C@H]2N)[C@@H](N)[C@H](O)[C@@H]1OC [Compound 7, 4-N-(n-butyryl)fortimicin B]
MIC [1, 8]: 6.25 µg/mL (≈ 14.9 µM) | MIC [2, 13]: 12.5 µg/mL (≈ 29.9 µM) | MIC [3, 10]: 6.25 µg/mL (≈ 14.9 µM) | MIC [4, 11]: 100 µg/mL (≈ 239 µM) | MIC [5]: 50 µg/mL (≈ 119 µM) | MIC [6]: 12.5 µg/mL (≈ 29.9 µM) | MIC [7]: 25 µg/mL (≈ 59.7 µM)

CO[C@H]1[C@@H](O)[C@H](N)[C@@H](O[C@H]2O[C@H]([C@H](C)N)CC[C@H]2N)[C@H](O)[C@@H]1N(C)CCCCN [Compound 21, 4-N-(4-aminobutyl)fortimicin B]
MIC [1, 8]: 0.32 µg/mL (≈ 0.763 µM) | MIC [2, 9]: 0.32 µg/mL (≈ 0.763 µM) | MIC [3, 14]: 1.25 µg/mL (≈ 2.98 µM) | MIC [4, 11]: 2.5 µg/mL (≈ 5.96 µM) | MIC [5]: 2.5 µg/mL (≈ 5.96 µM) | MIC [6]: 1.25 µg/mL (≈ 2.98 µM) | MIC [7]: 5 µg/mL (≈ 11.9 µM)

CO[C@H]1[C@@H](O)[C@H](N)[C@@H](O[C@H]2O[C@H]([C@H](C)N)CC[C@H]2N)[C@H](O)[C@@H]1N(C)CCCCCCN [Compound 23, 4-N-(6-aminohexyl)fortimicin B]
MIC [1, 8]: 5 µg/mL (≈ 11.2 µM) | MIC [2, 9]: 5 µg/mL (≈ 11.2 µM) | MIC [3, 10]: 20 µg/mL (≈ 44.7 µM) | MIC [4, 11]: > 80 µg/mL | MIC [5]: > 80 µg/mL | MIC [6]: 20 µg/mL (≈ 44.7 µM) | MIC [7]: > 80 µg/mL

CCN(C)[C@H]1[C@@H](O)[C@H](O[C@H]2O[C@H]([C@H](C)N)CC[C@H]2N)[C@@H](N)[C@H](O)[C@@H]1OC [Compound 16, 4-N-ethylfortimicin B]
MIC [1, 8]: 1.56 µg/mL (≈ 4.14 µM) | MIC [2, 13]: 3.13 µg/mL (≈ 8.31 µM) | MIC [3, 14]: 3.13 µg/mL (≈ 8.31 µM) | MIC [4, 15]: 6.25 µg/mL (≈ 16.6 µM) | MIC [5]: 6.25 µg/mL (≈ 16.6 µM) | MIC [6]: 3.13 µg/mL (≈ 8.31 µM) | MIC [7]: 50 µg/mL (≈ 133 µM)

CCCN(C)[C@H]1[C@@H](O)[C@H](O[C@H]2O[C@H]([C@H](C)N)CC[C@H]2N)[C@@H](N)[C@H](O)[C@@H]1OC [Compound 17, 4-N-(n-propyl)fortimicin B]
MIC [1, 8]: 3.13 µg/mL (≈ 8.01 µM) | MIC [2, 13]: 12.5 µg/mL (≈ 32 µM) | MIC [3, 14]: 6.25 µg/mL (≈ 16 µM) | MIC [4, 15]: 12.5 µg/mL (≈ 32 µM) | MIC [5]: 12.5 µg/mL (≈ 32 µM) | MIC [6]: 6.25 µg/mL (≈ 16 µM) | MIC [7]: 100 µg/mL (≈ 256 µM)

CO[C@H]1[C@@H](O)[C@H](N)[C@@H](O[C@H]2O[C@H]([C@H](C)N)CC[C@H]2N)[C@H](O)[C@@H]1N(C)C[C@@H](O)CN [Compound 31, 4-N-[(S)-3-amino-2-hydroxypropyl]fortimicin B]
MIC [1, 8]: 0.16 µg/mL (≈ 0.38 µM) | MIC [2, 9]: 0.32 µg/mL (≈ 0.759 µM) | MIC [3, 10]: 2.5 µg/mL (≈ 5.93 µM) | MIC [4, 11]: 1.25 µg/mL (≈ 2.97 µM) | MIC [5]: 2.5 µg/mL (≈ 5.93 µM) | MIC [6]: 0.63 µg/mL (≈ 1.49 µM) | MIC [7]: 2.5 µg/mL (≈ 5.93 µM)

CO[C@H]1[C@@H](O)[C@H](N)[C@@H](O[C@H]2O[C@H]([C@H](C)N)CC[C@H]2N)[C@H](O)[C@@H]1N(C)CCO [Compound 24, 4-N-(2-hydroxyethyl)fortimicin B]
MIC [1, 12]: 1.25 µg/mL (≈ 3.18 µM) | MIC [2, 9]: > 80 µg/mL | MIC [3, 10]: 5 µg/mL (≈ 12.7 µM) | MIC [4, 11]: 10 µg/mL (≈ 25.5 µM) | MIC [5]: 10 µg/mL (≈ 25.5 µM) | MIC [6]: 1.25 µg/mL (≈ 3.18 µM) | MIC [7]: 40 µg/mL (≈ 102 µM)

CNC[C@H](O)CN(C)[C@H]1[C@@H](O)[C@H](O[C@H]2O[C@H]([C@H](C)N)CC[C@H]2N)[C@@H](N)[C@H](O)[C@@H]1OC [Compound 32, 4-N-[(S)-3-methylamino-2-hydroxypropyl]fortimicin B]
MIC [1, 8]: 0.16 µg/mL (≈ 0.367 µM) | MIC [2, 9]: 0.63 µg/mL (≈ 1.45 µM) | MIC [3, 10]: 2.5 µg/mL (≈ 5.74 µM) | MIC [4, 11]: 2.5 µg/mL (≈ 5.74 µM) | MIC [5]: 2.5 µg/mL (≈ 5.74 µM) | MIC [6]: 0.63 µg/mL (≈ 1.45 µM) | MIC [7]: 5 µg/mL (≈ 11.5 µM)

— patent publication US4220755A, “Fortimicin B derivatives and process for production thereof” (Abbott Laboratories, priority 1976, dated 1980)
